# Measurements: patent publication US11352340B2, “Pyridine and pyridimine compounds as PI3K-gamma inhibitors” (Incyte Corporation, priority 2016, dated 2022)
# Structures can show the parent of a compound that is named as a salt. Where two headings read alike, the source gives them in different places.
# Legend:
# [1] = test system: Phosphorylated Ribosomal Protein S6 (RPS6) in THP-1 cells; experiment: THP-1 RPS6 ELISA Assay; type: cell-based, Human; settings: MCP-1 stimulated, phospho-RPS6 ELISA, read-out: THP p-RPS6 ELISA IC50
# Outline: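 Phospho-RPS6 in lysates measured by ELISA at 450 nm, corrected at 540 nm, after MCP-1 challenge (10 nM, 15 min) of THP-1 cells that were starved overnight and exposed to test compound for 2 h at 37° C, 2×10^5 cells/well. Curve fit of percent inhibition gives IC50.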
# [2] = molecular target: PI3Kδ (p110δ/p85α) Recombinant Human Protein (Homo sapiens (Human), UniProt O00329); experiment: PI3Kδ Scintillation Proximity Assay; type: biochemical; settings: read-out: PI3K-delta SPA IC50
# PI3Kδ (p110δ/p85α) Recombinant Human Protein, sequence (O00329 whole entry): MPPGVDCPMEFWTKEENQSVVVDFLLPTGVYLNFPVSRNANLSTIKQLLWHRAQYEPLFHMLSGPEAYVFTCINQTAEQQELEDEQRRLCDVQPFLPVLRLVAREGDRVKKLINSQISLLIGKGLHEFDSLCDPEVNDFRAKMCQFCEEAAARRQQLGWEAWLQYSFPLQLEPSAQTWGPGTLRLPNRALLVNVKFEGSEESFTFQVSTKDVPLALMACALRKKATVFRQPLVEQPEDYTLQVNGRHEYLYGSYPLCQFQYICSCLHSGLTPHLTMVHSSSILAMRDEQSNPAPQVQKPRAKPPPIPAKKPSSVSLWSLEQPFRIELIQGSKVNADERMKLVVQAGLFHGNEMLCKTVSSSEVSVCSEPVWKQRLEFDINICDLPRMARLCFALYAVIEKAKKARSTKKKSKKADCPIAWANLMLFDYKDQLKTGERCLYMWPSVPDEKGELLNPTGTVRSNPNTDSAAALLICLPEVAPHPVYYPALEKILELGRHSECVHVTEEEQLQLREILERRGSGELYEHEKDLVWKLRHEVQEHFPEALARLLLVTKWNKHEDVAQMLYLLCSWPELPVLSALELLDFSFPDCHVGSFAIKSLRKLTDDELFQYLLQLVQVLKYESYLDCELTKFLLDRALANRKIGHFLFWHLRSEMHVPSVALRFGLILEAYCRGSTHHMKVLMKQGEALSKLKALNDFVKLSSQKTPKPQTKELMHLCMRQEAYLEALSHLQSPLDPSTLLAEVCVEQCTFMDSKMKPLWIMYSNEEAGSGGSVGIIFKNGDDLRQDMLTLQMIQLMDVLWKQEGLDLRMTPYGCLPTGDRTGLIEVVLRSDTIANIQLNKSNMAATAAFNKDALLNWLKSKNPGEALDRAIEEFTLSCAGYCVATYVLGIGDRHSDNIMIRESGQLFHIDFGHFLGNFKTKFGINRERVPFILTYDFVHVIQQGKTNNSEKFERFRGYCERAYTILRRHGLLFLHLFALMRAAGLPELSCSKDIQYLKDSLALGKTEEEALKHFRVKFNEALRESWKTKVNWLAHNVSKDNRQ
# PI3Kδ (p110δ/p85α) Recombinant Human Protein, sequence (P27986 whole entry partner): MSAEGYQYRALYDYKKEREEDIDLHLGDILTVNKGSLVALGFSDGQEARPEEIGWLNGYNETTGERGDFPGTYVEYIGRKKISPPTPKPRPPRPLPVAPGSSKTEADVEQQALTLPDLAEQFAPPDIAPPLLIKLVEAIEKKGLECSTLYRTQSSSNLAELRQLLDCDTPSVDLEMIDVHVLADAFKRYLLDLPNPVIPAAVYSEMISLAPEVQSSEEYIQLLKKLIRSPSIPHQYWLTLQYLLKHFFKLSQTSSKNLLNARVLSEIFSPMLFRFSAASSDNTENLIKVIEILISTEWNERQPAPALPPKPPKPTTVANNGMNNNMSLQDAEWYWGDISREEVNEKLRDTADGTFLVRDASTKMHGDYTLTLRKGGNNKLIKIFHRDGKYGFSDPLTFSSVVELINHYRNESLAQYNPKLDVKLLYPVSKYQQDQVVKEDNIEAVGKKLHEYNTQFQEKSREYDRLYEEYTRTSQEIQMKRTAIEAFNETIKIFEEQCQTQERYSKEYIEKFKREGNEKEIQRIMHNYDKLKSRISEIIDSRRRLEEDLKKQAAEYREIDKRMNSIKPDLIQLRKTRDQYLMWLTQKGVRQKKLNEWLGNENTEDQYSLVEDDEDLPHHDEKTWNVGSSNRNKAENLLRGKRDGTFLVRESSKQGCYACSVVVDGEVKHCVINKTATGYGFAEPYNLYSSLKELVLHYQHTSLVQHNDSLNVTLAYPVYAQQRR
# Outline: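 Assay conditions: 2 μM ATP (radiolabelled), 20 μM PIP2, 3.4 nM PI3Kδ, 20 mM MOPS pH 6.7 with 10 mM MgCl2, 5 mM DTT, 0.03% CHAPS, 2 h at room temperature. Signal from bead-captured 33P product; IC50 versus solvent control.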
# [3] = molecular target: PI3Kγ (p110γ) Recombinant Human Protein (Homo sapiens (Human), UniProt P48736); experiment: PI3K-γ Scintillation Proximity Assay; type: biochemical; settings: read-out: PI3K-gamma SPA IC50
# PI3Kγ (p110γ) Recombinant Human Protein, sequence (P48736 whole entry): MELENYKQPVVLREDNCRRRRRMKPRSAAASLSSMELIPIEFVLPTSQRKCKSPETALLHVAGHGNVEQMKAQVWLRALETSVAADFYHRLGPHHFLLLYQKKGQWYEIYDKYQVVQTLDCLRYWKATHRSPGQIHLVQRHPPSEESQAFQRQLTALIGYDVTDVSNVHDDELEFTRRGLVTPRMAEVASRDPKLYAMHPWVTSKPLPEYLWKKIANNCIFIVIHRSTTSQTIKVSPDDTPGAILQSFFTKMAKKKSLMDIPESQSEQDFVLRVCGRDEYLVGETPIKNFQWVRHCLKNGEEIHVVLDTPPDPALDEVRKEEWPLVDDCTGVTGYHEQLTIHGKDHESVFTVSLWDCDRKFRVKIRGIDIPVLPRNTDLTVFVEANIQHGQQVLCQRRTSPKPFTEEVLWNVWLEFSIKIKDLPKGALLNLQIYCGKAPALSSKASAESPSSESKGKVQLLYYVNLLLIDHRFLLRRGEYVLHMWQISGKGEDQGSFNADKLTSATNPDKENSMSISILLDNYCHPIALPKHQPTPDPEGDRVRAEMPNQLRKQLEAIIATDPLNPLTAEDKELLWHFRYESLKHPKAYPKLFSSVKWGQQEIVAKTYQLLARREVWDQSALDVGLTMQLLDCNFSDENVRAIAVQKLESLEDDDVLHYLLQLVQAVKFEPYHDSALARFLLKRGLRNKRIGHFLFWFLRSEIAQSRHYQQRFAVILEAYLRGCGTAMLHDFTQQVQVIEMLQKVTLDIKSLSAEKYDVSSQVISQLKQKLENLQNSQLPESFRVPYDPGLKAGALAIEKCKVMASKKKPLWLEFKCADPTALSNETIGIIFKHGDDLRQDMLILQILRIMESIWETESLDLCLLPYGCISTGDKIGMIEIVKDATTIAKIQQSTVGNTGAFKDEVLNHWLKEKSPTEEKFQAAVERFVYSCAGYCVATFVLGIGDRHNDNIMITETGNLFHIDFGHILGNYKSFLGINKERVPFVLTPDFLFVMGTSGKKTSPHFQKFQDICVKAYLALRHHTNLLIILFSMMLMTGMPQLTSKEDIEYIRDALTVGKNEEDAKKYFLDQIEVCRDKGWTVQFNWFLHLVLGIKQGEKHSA
# Outline: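 Radiometric SPA: reaction at room temperature for 120 min using 2 μM ATP with [γ-33P]ATP tracer, 20 μM PIP2 substrate and 13 nM human PI3Kγ (MOPS pH 6.7, MgCl2, DTT, CHAPS; 2% DMSO). EDTA quench with WGA beads, scintillation count, and IC50 fit of percent-of-control activity.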
IC50 ([1]; Homo sapiens),IC50 [2],IC50 [3],IC50 [1],SMILES
≤ 300 nM,≤ 50 nM,≤ 50 nM,,"Cc1nc(-c2cc(-c3cncc(C(=O)N4CCC(F)(F)C4)c3)ccn2)[nH]c1C [Example 173, 5-[(3,3-Difluoropyrrolidin-1-yl)carbonyl]-2′-(4,5-dimethyl-1H-imidazol-2-yl)-3,4′-bipyridine trifluoroacetate salt]"
300 to 1000 nM,≤ 500 nM,≤ 100 nM,,"Cc1nc(-c2cc(-c3cncc(N4CC[C@H](O)C4)c3)ccn2)[nH]c1C [Example 232, (3S)-1-[2′-(4,5-Dimethyl-1H-imidazol-2-yl)-3,4′-bipyridin-5-yl]pyrrolidin-3-ol]"
1000 to 5000 nM,≤ 50 nM,≤ 50 nM,,"Cc1[nH]c(-c2cc(-c3cncc(N4CCOCC4)c3)ccn2)nc1C(=O)N[C@H](C)c1ccccc1 [Example 274, 5-Methyl-2-(5-morpholin-4-yl-3,4′-bipyridin-2′-yl)-N-[(1R)-1-phenylethyl]-1H-imidazole-4-carboxamide trifluoroacetate salt]"
> 5000 nM,≤ 100 nM,≤ 100 nM,,"O=S(=O)(C1CCCC1)n1cc(-c2ccnc(-c3ncc(-c4ccccc4)[nH]3)c2)cn1 [Example 54, 4-(1-(Cyclopentylsulfonyl)-1H-pyrazol-4-yl)-2-(5-phenyl-1H-imidazol-2-yl)pyridine trifluoroacetate salt]"
300 to 1000 nM,≤ 50 nM,≤ 50 nM,,"CCS(=O)(=O)Nc1cncc(-c2ccnc(-c3ncc(-c4ccccc4)[nH]3)c2)c1 [Example 130, N-[2′-(5-Phenyl-1H-imidazol-2-yl)-3,4′-bipyridin-5-yl]ethanesulfonamide Trifluoroacetate Salt]"
≤ 300 nM,≤ 100 nM,≤ 50 nM,,"Cc1nc(-c2cc(-c3cncc(C(=O)N4CCC5(CC4)COC5)c3)ccn2)[nH]c1C [Example 165, (2′-(4,5-Dimethyl-1H-imidazol-2-yl)-3,4′-bipyridin-5-yl)(2-oxa-7-azaspiro[3.5]nonan-7-yl)methanone trifluoroacetate salt]"
> 5000 nM,≤ 50 nM,≤ 50 nM,,"c1ccc(-c2cnc(-c3cc(-c4cncc(NC5CCOCC5)c4)ccn3)[nH]2)cc1 [Example 142, 2′-(5-Phenyl-1H-imidazol-2-yl)-N-(tetrahydro-2H-pyran-4-yl)-3,4′-bipyridin-5-amine trifluoroacetate salt]"
1000 to 5000 nM,≤ 500 nM,≤ 100 nM,,"Cc1n[nH]cc1-c1ccnc(-c2ncc(-c3ccccc3)[nH]2)c1 [Example 9, 4-(3-Methyl-1H-pyrazol-4-yl)-2-(5-phenyl-1H-imidazol-2-yl)pyridine trifluoroacetate salt]"
300 to 1000 nM,≤ 50 nM,≤ 50 nM,,"CS(=O)(=O)c1cncc(-c2ccnc(-c3ncc(C4CC4)[nH]3)c2)c1 [Example 112, 2′-(5-Cyclopropyl-1H-imidazol-2-yl)-5-(methylsulfonyl)-3,4′-bipyridine trifluoroacetate salt]"
≤ 300 nM,≤ 50 nM,≤ 50 nM,,"Cc1[nH]c(-c2cc(-c3cncc(S(C)(=O)=O)c3)ccn2)nc1C(=O)NC(C)C [Example 253, N-Isopropyl-5-methyl-2-[5-(methylsulfonyl)-3,4′-bipyridin-2′-yl]-1H-imidazole-4-carboxamide trifluoroacetate salt]"
300 to 1000 nM,≤ 50 nM,≤ 50 nM,,"c1ccc(-c2cnc(-c3cc(-c4cncc(N5CCOCC5)c4)ccn3)[nH]2)cc1 [Example 18, 4-(2′-(5-Phenyl-1H-imidazol-2-yl)-3,4′-bipyridin-5-yl)morpholine trifluoroacetate salt]"
> 5000 nM,> 500 nM,≤ 100 nM,,"CCNc1ncc(-c2cc(-c3cncc(OC)c3)ccn2)[nH]1 [Example 62, N-Ethyl-5-(5-methoxy-3,4′-bipyridin-2′-yl)-1H-imidazol-2-amine Trifluoroacetate Salt]"
300 to 1000 nM,≤ 500 nM,≤ 50 nM,,"Cc1cnc(-c2cc(-c3cncc(N4CCOCC4)c3)ccn2)[nH]1 [Example 97, 2′-(5-Methyl-1H-imidazol-2-yl)-5-morpholin-4-yl-3,4′-bipyridine]"
,≤ 50 nM,≤ 50 nM,> 5000 nM,Cc1[nH]c(-c2cc(-c3cncc(S(C)(=O)=O)c3)ccn2)nc1C(=O)N1CC[C@@H](O)C1 [Example 245]
300 to 1000 nM,≤ 50 nM,≤ 50 nM,,"Cc1[nH]c(-c2cc(-c3cncc(N4CCOCC4)c3)ccn2)nc1C(=O)N[C@H]1CCOC1 [Example 271, 5-Methyl-2-(5-morpholin-4-yl-3,4′-bipyridin-2′-yl)-N-[(3S)-tetrahydrofuran-3-yl]-1H-imidazole-4-carboxamide trifluoroacetate salt]"
≤ 300 nM,≤ 100 nM,≤ 50 nM,,"Cc1nc(-c2cc(-c3cncc(C(=O)N4CC[C@@H](N(C)C)C4)c3)ccn2)[nH]c1C [Example 161, (R)-(2′-(4,5-Dimethyl-1H-imidazol-2-yl)-3,4′-bipyridin-5-yl)(3-(dimethylamino)pyrrolidin-1-yl)methanone trifluoroacetate salt]"
≤ 300 nM,≤ 100 nM,≤ 100 nM,,"N#CCn1cc(-c2ccnc(-c3ncc(-c4ccccc4)[nH]3)c2)cn1 [Example 56, 2-(4-(2-(5-Phenyl-1H-imidazol-2-yl)pyridin-4-yl)-1H-pyrazol-1-yl)acetonitrile trifluoroacetate salt]"
300 to 1000 nM,≤ 50 nM,≤ 50 nM,,"CC(=O)Nc1cncc(-c2ccnc(-c3ncc(-c4ccccc4)[nH]3)c2)c1 [Example 17, N-(2′-(5-Phenyl-1H-imidazol-2-yl)-3,4′-bipyridin-5-yl)acetamide trifluoroacetate salt]"
300 to 1000 nM,≤ 100 nM,≤ 50 nM,,"Cc1nc(-c2cc(-c3cncc(C(=O)N4CC[C@H]5CCCC[C@@H]5C4)c3)ccn2)[nH]c1C [Example 187, 2′-(4,5-Dimethyl-1H-imidazol-2-yl)-5-[(4aR,8aS)-octahydroisoquinolin-2(1H)-ylcarbonyl]-3,4′-bipyridine trifluoroacetate salt]"
300 to 1000 nM,≤ 100 nM,≤ 50 nM,,"Cc1nc(-c2cc(-c3cncc(C(=O)N(C)CC#N)c3)ccn2)[nH]c1C [Example 203, N-(Cyanomethyl)-2′-(4,5-dimethyl-1H-imidazol-2-yl)-N-methyl-3,4′-bipyridine-5-carboxamide]"
≤ 300 nM,≤ 100 nM,≤ 50 nM,,"Cc1nc(-c2cc(-c3cncc(C(=O)N4CC(C)(C)C4)c3)ccn2)[nH]c1C [Example 185, 5-[(3,3-Dimethylazetidin-1-yl)carbonyl]-2′-(4,5-dimethyl-1H-imidazol-2-yl)-3,4′-bipyridine trifluoroacetate salt]"
≤ 300 nM,≤ 50 nM,≤ 50 nM,,"Cc1[nH]c(-c2cc(-c3cncc(N4CCOCC4)c3)ccn2)nc1CCO [Example 123, 2-[5-Methyl-2-(5-morpholin-4-yl-3,4′-bipyridin-2′-yl)-1H-imidazol-4-yl]ethanol]"
300 to 1000 nM,≤ 500 nM,≤ 50 nM,,"COc1cncc(-c2ccnc(-c3ncc(C4CC4)[nH]3)c2)c1 [Example 86, 2′-(5-Cyclopropyl-1H-imidazol-2-yl)-5-methoxy-3,4′-bipyridine]"
300 to 1000 nM,≤ 50 nM,≤ 50 nM,,"CCN(C)C(=O)c1cncc(-c2ccnc(-c3nc(C)c(C)[nH]3)c2)c1 [Example 198, 2′-(4,5-Dimethyl-1H-imidazol-2-yl)-N-ethyl-N-methyl-3,4′-bipyridine-5-carboxamide trifluoroacetate salt]"
300 to 1000 nM,≤ 50 nM,≤ 50 nM,,"CCc1cnc(-c2cc(-c3cncc(S(C)(=O)=O)c3)ccn2)[nH]1 [Example 110, 2′-(5-Ethyl-1H-imidazol-2-yl)-5-(methylsulfonyl)-3,4′-bipyridine trifluoroacetate salt]"
≤ 300 nM,≤ 50 nM,≤ 50 nM,,"Cc1nc(-c2cc(-c3cncc(C(=O)N4CCC(c5ccccc5)CC4)c3)ccn2)[nH]c1C [Example 186, 2′-(4,5-Dimethyl-1H-imidazol-2-yl)-5-[(4-phenylpiperidin-1-yl)carbonyl]-3,4′-bipyridine trifluoroacetate salt]"
≤ 300 nM,≤ 50 nM,≤ 50 nM,,"CS(=O)(=O)c1cncc(-c2ccnc(-c3ncc(C4CCCC4)[nH]3)c2)c1 [Example 114, 2′-(5-Cyclopentyl-1H-imidazol-2-yl)-5-(methylsulfonyl)-3,4′-bipyridine trifluoroacetate salt]"
≤ 300 nM,≤ 50 nM,≤ 50 nM,,"Cc1[nH]c(-c2cc(-c3cncc(N4CCOCC4)c3)ccn2)nc1C(=O)NCc1ccccc1 [Example 272, N-Benzyl-5-methyl-2-(5-morpholin-4-yl-3,4′-bipyridin-2′-yl)-1H-imidazole-4-carboxamide trifluoroacetate salt]"
